Active and inactive are the calls of the source. No cut-off for these calls is given here.
Tests used:
[1] = Toxicity in zebrafish xenografted with human NCI-H1975 cells assessed as body deformity at 1 uM; set-up: species or system Danio rerio
[2] = Cytotoxicity against human BEAS-2B cells assessed as cell growth inhibition at 4.5 to 10 nM incubated for 48 hrs by MTT assay relative to control; type: toxicity, cell-based; settings: dose 4.5-10 nM, read-out: Imax
[3] = Developmental toxicity in zebrafish AB zygotes assessed as decrease in hatching rate at 1 to 4 uM treated at 6 hrs post-fertilization measured at 24 to 72 hrs post-fertilization; set-up: species or system Danio rerio; settings: in vivo, dose lower 1 µM, time lower 18 hrs, dose upper 4 µM, time upper 66 hrs
Danio rerio [4] = organism: Danio rerio; assay: Induction of ROS production in zebrafish at 1 to 2 uM measured after 48 hrs by fluorescence microscopy; type: functional, organism-based; settings: dose 1-2 µM
MCF7 [5] = assay: Cytotoxicity against human MCF7 cells assessed as cell growth inhibition at 4.5 to 10 nM incubated for 48 hrs by MTT assay relative to control; type: functional; settings: dose 4.5-10 nM
[6] = Renal toxicity in zebrafish assessed as yolk sac absorption at 2 uM treated at 3 hrs post-fertilization measured at 48 hrs post-compound treatment by FITC staining based microscopy; set-up: species or system Danio rerio; settings: in vivo
NCI-H460 [7] = assay: Cytotoxicity against human NCI-H460 cells assessed as cell growth inhibition incubated for 48 hrs by MTT assay; type: functional, cell-based
[8] = Cytotoxicity against human HUVEC cells assessed as cell growth inhibition at 4.5 to 10 nM incubated for 48 hrs by MTT assay relative to control; type: toxicity, cell-based; settings: dose 4.5-10 nM, read-out: Imax
NCI-H1975 [9] = assay: Cytotoxicity against human NCI-H1975 cells assessed as cell growth inhibition at 123 nM by MTT assay; type: functional, cell-based; settings: time 24-70 hrs, TDE = time-dependent effect
[10] = Teratogenic toxicity in zebrafish AB zygotes at 0.5 to 2 uM treated at 6 hrs post-fertilization measured at 24 to 72 hrs post-fertilization; set-up: species or system Danio rerio; settings: in vivo, dose lower 0.5 µM, time lower 18 hrs, dose upper 2 µM, time upper 66 hrs
NCI-H1975 [11] = assay: Cytotoxicity against human NCI-H1975 cells assessed as cell growth inhibition at >41.15 nM incubated for 48 hrs by MTT assay relative to control; type: functional
[12] = Renal toxicity in zebrafish assessed as increase in Kim1 expression at 0.5 to 2 uM treated for 48 hrs by RT-qPCR analysis; set-up: species or system Danio rerio; settings: in vivo, dose 0.5-2 µM
MCF7 [13] = assay: Cytotoxicity against human MCF7 cells assessed as cell growth inhibition incubated for 48 hrs by MTT assay; type: functional, cell-based
BEAS-2B [14] = assay: Cytotoxicity against human BEAS-2B cells assessed as cell growth inhibition incubated for 48 hrs by MTT assay; type: toxicity, cell-based
HepG2 [15] = assay: Cytotoxicity against human HepG2 cells assessed as cell growth inhibition at 4.5 to 10 nM incubated for 48 hrs by MTT assay relative to control; type: functional; settings: dose 4.5-10 nM
NCI-H1975 [16] = assay: Cytotoxicity against human NCI-H1975 cells assessed as cell growth inhibition at 4.5 to 10 nM incubated for 48 hrs by MTT assay relative to control; type: functional; settings: dose 4.5-10 nM
NCI-H460 [17] = assay: Cytotoxicity against human NCI-H460 cells assessed as cell growth inhibition at 4.5 to 10 nM incubated for 48 hrs by MTT assay relative to control; type: functional; settings: dose 4.5-10 nM
HepG2 [18] = assay: Cytotoxicity against human HepG2 cells assessed as cell growth inhibition incubated for 48 hrs by MTT assay; type: functional, cell-based; settings: dose 4.5-10 nM
[19] = Developmental toxicity in zebrafish AB zygotes assessed as embryo malformation at 0.5 to 2 uM treated at 6 hrs post-fertilization measured at 24 to 72 hrs post-fertilization; set-up: species or system Danio rerio; settings: in vivo, dose lower 0.5 µM, time lower 18 hrs, dose upper 2 µM, time upper 66 hrs
[20] = Renal toxicity in fluorescent transgenic zebrafish at 0.5 to 2 uM treated for 48 hrs by fluorescence microscopy; set-up: species or system Danio rerio; settings: in vivo, dose 0.5-2 µM
[21] = Toxicity in zebrafish xenografted with human NCI-H1975 cells assessed as animal death at 2 uM; set-up: species or system Danio rerio
BEAS-2B [22] = assay: Induction of ROS generation in human BEAS-2B cells at 0.4 uM incubated for 24 hrs by DCFH-DA probe based analysis; type: toxicity, cell-based
Danio rerio [23] = organism: Danio rerio; assay: Induction of ROS production in zebrafish at 2 uM measured after 48 hrs by fluorescence microscopy; type: functional, organism-based
NCI-H1975 [24] = assay: Inhibition of mitochondrial membrane potential in human NCI-H1975 cells at 200 nM incubated for 24 hrs by JC-1 staining based flow cytometry; type: functional, cell-based
[25] = Toxicity in zebrafish embryo assessed as damage effect in liver development at 1 uM with replacement of new growth solution daily by fluorescence microscopy relative to control; type: tissue-based, Danio rerio; settings: in vivo
[26] = Renal toxicity in zebrafish assessed as increase in TNF-alpha expression at 2 uM treated for 48 hrs by RT-qPCR analysis; set-up: species or system Danio rerio; settings: in vivo
[27] = Cytotoxicity against human BEAS-2B cells assessed as inhibition of cell viability incubated for 48 hrs by MTT assay; type: toxicity, cell-based
NCI-H1975 [28] = assay: Induction of apoptosis in human NCI-H1975 cells assessed as nuclear shrinkage at 400 nM incubated for 24 hrs by DAPI staining based analysis; type: functional, cell-based
NCI-H1975 [29] = assay: Induction of apoptosis in human NCI-H1975 cells at 50 to 400 nM incubated for 24 hrs by Annexin V-FITC/PI staining based flow cytometry; type: functional, cell-based; settings: dose 50-400 nM
[30] = Developmental toxicity in zebrafish AB zygotes assessed as decrease in hatching rate at 0.25 to 1 uM treated at 6 hrs post-fertilization measured at 24 to 72 hrs post-fertilization; set-up: species or system Danio rerio; settings: in vivo, dose lower 0.25 µM, time lower 18 hrs, dose upper 1 µM, time upper 66 hrs
NCI-H1975 [31] = assay: Induction of ROS generation in human NCI-H1975 cells incubated for 24 hrs by DCFH-DA probe based analysis; type: functional, cell-based; settings: dose 0.05-0.4 µM
NCI-H1975 [32] = assay: Inhibition of cell viability in human NCI-H1975 cells assessed as cell index at 270 nM measured after 48 hrs by real-time cell analysis; type: functional
[33] = Teratogenic toxicity in zebrafish AB zygotes at 2 to 4 uM treated at 6 hrs post-fertilization measured at 24 to 72 hrs post-fertilization; set-up: species or system Danio rerio; settings: in vivo, dose lower 2 µM, time lower 18 hrs, dose upper 4 µM, time upper 66 hrs
NCI-H460 [34] = assay: Cytotoxicity against human NCI-H460 cells assessed as inhibition of cell viability incubated for 48 hrs by MTT assay; type: functional, cell-based; settings: NCI-H460, 48 h
[35] = Developmental toxicity in zebrafish AB zygotes assessed as embryo malformation at 2 to 4 uM treated at 6 hrs post-fertilization measured at 24 to 72 hrs post-fertilization; set-up: species or system Danio rerio; settings: in vivo, dose lower 2 µM, time lower 18 hrs, dose upper 4 µM, time upper 66 hrs
BEAS-2B [36] = assay: Induction of apoptosis in human BEAS-2B cells assessed as morphological change in nucleus at 50 to 400 nM incubated for 24 hrs by DAPI staining based analysis; type: toxicity, cell-based; settings: 0.4 µM, dose 50-400 nM
[37] = Toxicity in zebrafish embryo assessed as liver function at 2 uM with replacement of new growth solution daily by fluorescence microscopy (reference value: 100 +/- 8.89 %); type: tissue-based, Danio rerio; settings: in vivo
NCI-H1975 [38] = assay: Inhibition of cell viability in human NCI-H1975 cells assessed as effect on cell index at 30 nM by real-time cell analysis; type: functional, cell-based
BEAS-2B [39] = assay: Inhibition of mitochondrial membrane potential in human BEAS-2B cells at 200 nM incubated for 24 hrs by JC-1 staining based flow cytometry; type: toxicity, cell-based; settings: 0.2 µM

CC(C)[C@]12O[C@H]1[C@@H]1O[C@@]13[C@@]1(C)CCC4=C(COC4=O)[C@@H]1C[C@@H]1O[C@@]13C2=O [TRIPTONIDE]
Activity [1]: Toxic | Emax at 48 h [2]: ~40% | Activity [3]: Toxic | Activity (Danio rerio [4]): Active | Imax (MCF7 [5]): ~40% | Activity [6]: Toxic | inhibition (NCI-H460 [7]): Dose-Dependent Effect | Emax at 48 h [8]: ~60% | inhibition (NCI-H1975 [9]): Tde | Activity [10]: Toxic | inhibition (INH) (NCI-H1975 [11]): <50% | Activity [12]: Toxic | inhibition (MCF7 [13]): Dose-Dependent Effect | inhibition (INH) (BEAS-2B [14]): Dose-Dependent Effect | inhibition (INH) (HepG2 [15]): 80% | Imax (NCI-H1975 [16]): ~40% | Imax (NCI-H460 [17]): ~40% | inhibition (HepG2 [18]): Active | Activity [19]: Toxic | Activity [20]: Toxic | Activity [21]: Toxic

CC(C)[C@]12O[C@H]1[C@@H]1O[C@]13[C@]1(O[C@H]1C[C@H]1C4=C(CC[C@@]13C)C(=O)OC4)[C@@H]2OC(=O)CCCCCCCC[n+]1ccc(/C=C/c2c[nH]c3ccccc23)cc1.[Br-]
Activity (BEAS-2B [22]): Toxic | Activity (Danio rerio [23]): Active | inhibition (NCI-H1975 [24]): Active | Activity [25]: 23.76% | Activity [26]: Toxic | IC50 at 48 h [27]: 19.2 µM | Activity (NCI-H1975 [28]): Active | Activity (NCI-H1975 [29]): Active | Activity [30]: Non-Toxic | Activity (NCI-H1975 [31]): Dose-Dependent Effect | Activity_index (NCI-H1975 [32]): 0 | Activity [33]: Toxic | IC50 (NCI-H460 [34]): 4.78 µM | Activity [35]: Toxic | Activity (BEAS-2B [36]): Non-Toxic | Activity [37]: 20.04% | inhibition (NCI-H1975 [38]): Active | Activity (BEAS-2B [39]): Non-Toxic

— ChEMBL document CHEMBL5537157, “Selective Antitumor Effect and Lower Toxicity of Mitochondrion-Targeting Derivatization of Triptolide” (J Med Chem, 2024)
